Source: patent US20130324412A1, “N-ALKOXYAMIDES OF 6-(SUBSTITUTED PHENYL)-4-AMINOPICOLINATES AND 2-(SUBSTITUTED PHENYL)-6-AMINO-4-PYRIMIDINECARBOXYLATES AND THEIR USE AS SELECTIVE HERBICIDES FOR CROPS” (DOW AGROSCIENCES LLC, priority 2009, published 2013)

Experiments:
Type in all cases: in vivo
[1] = system: pigweed, redroot (Amaranthus retroflexus); experiment: Postemergence herbicidal activity in corn, redroot pigweed; settings: corn test, visual rating after 21 d, probit analysis, dose to kill or control 80 percent
Method: (§1) Seeds of corn and the desired weed species were planted in Sun Gro MetroMix 360 planting mixture, which typically has a pH of 6.0 to 6.8 and an organic matter content of about 30 percent, in plastic pots with a surface area of 95 cm^2. When required to ensure good germination and healthy plants, a fungicide treatment and/or other chemical or physical treatment was applied. The plants were grown for 7-21 d in a greenhouse with an approximate 15-h photoperiod which was maintained at about 23-29° C. during the day and 22-28° C. during the night. Nutrients and water were added on a regular basis and supplemental lighting was provided with overhead metal halide 1000-Watt lamps as necessary. The corn plants were utilized for testing when they reached the second true leaf stage. The weed species were utilized at the first or second true leaf stage.
(§2) A weighed amount, determined by the highest rate to be tested, of each test compound was dissolved in 4 mL of a 97:3 v/v mixture of acetone and DMSO to obtain concentrated stock solutions. […] The concentrated stock solutions obtained were diluted with 20 mL of an aqueous mixture containing acetone, water, isopropyl alcohol, DMSO, Atplus 411F crop oil concentrate, and Triton X-155 surfactant in a 48.5:39:10:1.5:1.0:0.02 v/v ratio to obtain spray solutions containing the highest application rates. […]
(§3) The treated plants and control plants were placed in a greenhouse as described above and watered by sub-irrigation to prevent wash-off of the test compounds. After 21 d, the condition of the test plants as compared with that of the untreated plants was determined visually and scored on a scale of 0 to 100 percent where 0 corresponds to no injury and 100 corresponds to complete kill. […]

[2] = system: lambsquarters (Chenopodium album); experiment: Postemergence herbicidal activity in corn, lambsquarters; settings: corn test, visual rating after 21 d, probit analysis, dose to kill or control 80 percent
Method: as §1, §2, §3

[3] = system: sicklepod (Casia obtusifolia); experiment: Postemergence herbicidal activity in corn, sicklepod; settings: corn test, visual rating after 21 d, probit analysis, dose to kill or control 80 percent
Method: as §1, §2, §3

[4] = system: corn (Zea mays); experiment: Postemergence herbicidal activity in corn, crop; settings: visual rating after 21 d, probit analysis, dose to kill or control 20 percent
Method: as §1, §2, §3

[5] = system: wild buckwheat (Polygonum convululus); experiment: Postemergence herbicidal activity in corn, wild buckwheat; settings: corn test, visual rating after 21 d, probit analysis, dose to kill or control 80 percent
Method: as §1, §2, §3

[6] = system: velvetleaf (Abutilon theophrasti); experiment: General postemergence herbicidal activity, velvetleaf; settings: post-emergence, 336 h, 140 g ai/ha, postemergence, after 14 d, 0 = no injury, 100 = complete kill, read-out: ABUTH % Visual Injury
Procedure, shortened: (§4)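 Greenhouse plants at first to second true leaf stage sprayed overhead at 187 L/ha in acetone/DMSO with crop oil concentrate and surfactant, at a high rate plus ½× to 1/16× serial dilutions. Injury rated visually after 14 d against solvent-blank controls, 0 (none) to 100% (complete kill).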

[7] = system: corn (Zea mays); experiment: General postemergence herbicidal activity, corn; settings: post-emergence, 336 h, 140 g ai/ha, postemergence, after 14 d, 0 = no injury, 100 = complete kill, read-out: ZEAMX % Visual Injury
Procedure, shortened: as §4

[8] = system: lambsquarters (Chenopodium album); experiment: General postemergence herbicidal activity, lambsquarters; settings: post-emergence, 336 h, 140 g ai/ha, postemergence, after 14 d, 0 = no injury, 100 = complete kill, read-out: CHEAL % Visual Injury
Procedure, shortened: as §4

[9] = system: wild buckwheat (Polygonum convululus); experiment: General postemergence herbicidal activity, wild buckwheat; settings: post-emergence, 336 h, 140 g ai/ha, postemergence, after 14 d, 0 = no injury, 100 = complete kill, read-out: POLCO % Visual Injury
Procedure, shortened: as §4

SMILES: C=CCONC(=O)c1nc(-c2ccc(Cl)c(OC)c2F)cc(N)c1Cl [Compound 3, N-(2-Propenyloxy)-4-amino-3-chloro-6-(4-chloro-2-fluoro-3-methoxyphenyl)picolinamide]
- AMARE GR80 [1]: 5 g ai/ha
- CHEAL GR80 [2]: <4 g ai/ha
- CASOB GR80 [3]: 5 g ai/ha
- ZEAMX GR20 [4]: >35 g ai/ha
- POLCO GR80 [5]: <4 g ai/ha
- pest or weed control at 140 g/ha [6]: 100%
- plant injury at 140 g/ha [7]: 0%
- pest or weed control at 140 g/ha [8]: 100%
- pest or weed control at 140 g/ha [9]: 100%
